Results from patent publication US11420963B2, “Rebamipide prodrugs, preparation method and use thereof” (SAMJIN PHARMACEUTICAL CO., LTD., priority 2012, dated 2022).
“Also recorded” adds a separate entry of the source. Read-outs that look alike come from different tables or passages of the source.

How the values were obtained:
[1] = Hydrolysis of prodrug into acting drug (rebamipide) in whole blood of rat, HPLC; type: in vitro ADME; conditions: for half-life at 0.196 mg/mL: half life of conversion from prodrug to rebamipide, read-out: Conversion Time in Whole Rat Blood (t1/2)
Description: Frozen rat blood was thawed for about 1 hr in a 37° C. water bath and homogenized.
A stock solution was prepared by dissolving 10 mg of the compound of each Example in 1 mL of CAN. Optionally, a buffer (prepared by mixing 750 mL of a solution of Na2HPO4 0.58 g and KH2PO4 2 g in 1 L of H2O with 250 mL of CAN) was added. In a 4 mL tube, 40 μL of the stock solution was uniformly mixed with 2 mL of blood by shaking, followed by storage at 30 rpm in a water bath.
At 0, 2, 4, 6, 8, 10, 15, 30, 45, 60, 90, and 120 min after storage, a sample was taken in a volume of 200 μL, diluted in 400 μL of CAN, vortexed for 1 min, and centrifuged for 1 min. The supernatant was analyzed by HPLC (but, for the compound of Example 47, sampling was performed at 0, 1, 3, 5, 7, and 10 min after storage). In addition, measurement was made of the time that it took for the prodrugs to be converted into the acting drug (rebamipide).

[2] = in vivo; cited from earlier work
[3] = due to low solubility and low intestinal permeability; cited from earlier work
[4] = tested on: acetic acid-induced gastric ulcers; conditions: rats; cited from earlier work
[5] = cited from earlier work

For `O=C(COC(=O)C(Cc1cc(=O)[nH]c2ccccc12)NC(=O)c1ccc(Cl)cc1)OCCN1CCOCC1` (stereo not drawn) [Example 105, 2-Morpholin-4-yl-ethoxycarbonylmethyl 2-(4-chlorobenzoylamino)-3-(2-oxo-1,2-dihydroquinolin-4-yl)propionate], the half-life at 0.196 mg/mL [1] was < 2 min.

In the case of `CCN(CC)CCOC(=O)C(Cc1cc(=O)[nH]c2ccccc12)NC(=O)c1ccc(Cl)cc1` (stereo not drawn) [Example 16, 2-Diethylaminoethyl 2-(4-chlorobenzoylamino)-3-(2-oxo-1,2-dihydroquinolin-4-yl)propionate], the half-life at 0.196 mg/mL [1] is reported as < 2 min.

With `CCN(CC)CCSC(=O)C(Cc1cc(=O)[nH]c2ccccc12)NC(=O)c1ccc(Cl)cc1` (stereo not drawn) [Example 121, S-(2-Diethylamino)ethyl 2-(4-chlorobenzoylamino)-3-(2-oxo-1,2-dihydroquinolin-4-yl)thiopropionate] the half-life at 0.196 mg/mL [1] was < 2 min.

In the case of `CCC(OC(=O)C(Cc1cc(=O)[nH]c2ccccc12)NC(=O)c1ccc(Cl)cc1)C(=O)N1CCN(C)CC1` (stereo not drawn) [Example 100, 1-(4-Methylpiperazine-1-carbonyl)propyl 2-(4-chlorobenzoylamino)-3-(2-oxo-1,2-dihydroquinolin-4-yl)propionate], the half-life at 0.196 mg/mL [1] is reported as < 2 min.

For `CN1CCN(C(=O)COC(=O)C(Cc2cc(=O)[nH]c3ccccc23)NC(=O)c2ccc(Cl)cc2)CC1` (stereo not drawn) [Example 99, 2-(4-Methylpiperazin-1-yl)-2-oxoethyl 2-(4-chlorobenzoylamino)-3-(2-oxo-1,2-dihydroquinolin-4-yl)propionate], the half-life at 0.196 mg/mL [1] was < 2 min.

For `CN(C)CCOC(=O)C(Cc1cc(=O)[nH]c2ccccc12)NC(=O)c1ccc(Cl)cc1` (stereo not drawn) [Example 14, 2-Dimethylaminoethyl 2-(4-chlorobenzoylamino)-3-(2-oxo-1,2-dihydroquinolin-4-yl)propionate], the half-life at 0.196 mg/mL [1] was < 2 min.

With `O=C(OCCN1CCOCC1)OCOC(=O)C(Cc1cc(=O)[nH]c2ccccc12)NC(=O)c1ccc(Cl)cc1` (stereo not drawn) [Example 109, 2-Morpholin-4-yl-ethoxycarbonyloxymethyl 2-(4-chlorobenzoylamino)-3-(2-oxo-1,2-dihydroquinolin-4-yl)propionate] the half-life at 0.196 mg/mL [1] was < 2 min.

For `O=C(NC(Cc1cc(=O)[nH]c2ccccc12)C(=O)OCCN1CCCCC1)c1ccc(Cl)cc1` (stereo not drawn) [Example 44, 2-Piperidin-1-ylethyl 2-(4-chlorobenzoylamino)-3-(2-oxo-1,2-dihydroquinolin-4-yl)propionate], the half-life at 0.196 mg/mL [1] was < 2 min.

With `CON(C)C(=O)COC(=O)C(Cc1cc(=O)[nH]c2ccccc12)NC(=O)c1ccc(Cl)cc1` (stereo not drawn) [Example 102, (Methoxymethylcarbamoyl)methyl 2-(4-chlorobenzoylamino)-3-(2-oxo-1,2-dihydroquinolin-4-yl)propionate] the half-life at 0.196 mg/mL [1] was < 2 min.

With `O=C(NC(Cc1cc(=O)[nH]c2ccccc12)C(=O)OCCN1CCOCC1)c1ccc(Cl)cc1` (stereo not drawn) [Example 47, 2-Morpholin-4-ylethyl 2-(4-chlorobenzoylamino)-3-(2-oxo-1,2-dihydroquinolin-4-yl)propionate] the “time to complete conversion into rebamipide” value ([1]; FIG. 1) was “about 10 min” and the half-life at 0.196 mg/mL [1] was 2.57 min.

With `O=C(NC(Cc1cc(=O)[nH]c2ccccc12)C(=O)SCCN1CCCC1)c1ccc(Cl)cc1` (stereo not drawn) [Example 144, S-(2-Pyrrolidin-1-yl)ethyl 2-(4-chlorobenzoylamino)-3-(2-oxo-1,2-dihydroquinolin-4-yl)thiopropionate] the half-life at 0.196 mg/mL [1] was < 2 min.

For `O=C(NC(Cc1cc(=O)[nH]c2ccccc12)C(=O)O)c1ccc(Cl)cc1` (stereo not drawn) [Rebamipide], the bioavailability [2] is listed as “around 5%”, the BCS class [3] is listed as “Class IV” and the “effect on ulcer size, relapse rate and cure rate” value [4] is listed as “reduces sizes and relapse rates of the ulcer while improving the cure rate”. The aqueous solubility ([5]; pH 3) was “approximately 0.0001 % (w/v)”, the aqueous solubility ([5]; pH 7) was “approximately 0.013 % (w/v)” and the “solubility in solvents (in words)” value ([5]; solvent named in the value) was “freely soluble in dimethylformamide; also recorded: slightly soluble in methanol and ethanol; also recorded: almost insoluble in ether and water”.

For `O=C(NC(Cc1cc(=O)[nH]c2ccccc12)C(=O)SCCN1CCOCC1)c1ccc(Cl)cc1` (stereo not drawn) [Example 151, S-(2-Morpholin-4-yl)ethyl 2-(4-chlorobenzoylamino)-3-(2-oxo-1,2-dihydroquinolin-4-yl)propionate], the half-life at 0.196 mg/mL [1] was < 2 min.

With `CCC(OC(=O)C(Cc1cc(=O)[nH]c2ccccc12)NC(=O)c1ccc(Cl)cc1)C(=O)OCCN1CCOCC1` (stereo not drawn) [Example 106, 2-Morpholin-4-ylethyl 2-[2-(4-chlorobenzoylamino)-3-(2-oxo-1,2-dihydroquinolin-4-yl)propionyloxy]butyrate] the half-life at 0.196 mg/mL [1] was < 2 min.

With `Cc1oc(=O)oc1CSC(=O)C(Cc1cc(=O)[nH]c2ccccc12)NC(=O)c1ccc(Cl)cc1` (stereo not drawn) [Example 155, S-(5-Methyl-2-oxo-[1,3]dioxol-4-yl)methyl 2-(4-chlorobenzoylamino)-3-(2-oxo-1,2-dihydroquinolin-4-yl)thiopropionate] the half-life at 0.196 mg/mL [1] was < 2 min.
